# Assay: The compound was evaluated for binding affinity towards monoclonal antibody NC10.14 using competitive radioimmunoassay.
compound,measurement,value
N#Cc1ccc(N/C(=N\CC(=O)O)NC(c2ccccc2)c2ccccc2)cc1,Kd,18 nM

# — ChEMBL document CHEMBL1130785, “A labeled guanidine ligand for studying sweet taste” (Bioorg Med Chem Lett, 1998)
